This is an account of results in patent publication US10189816B2, “Substituted pyridines as inhibitors of human immunodeficiency virus replication” (priority 2015, dated 2019).

Read-outs that look alike come from different tables or passages of the source.

The assay has as its system NL-RLuc virus. The experiment in a line: Inhibition of HIV replication (NL-RLuc reporter virus in MT-2 cells, luciferase readout). It is filed as cell-based. To be noted: Human immunodeficiency virus 1, MT2, 120 h. Put shortly:
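Antiviral EC50 came from luciferase signal after 5-day multicycle replication of NL-RLuc virus in MT-2 cells with serially diluted compound (RPMI 1640, 10% heat-inactivated FBS), fitted by the median effect equation over at least 2 experiments.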

Take `COc1cc(F)c(CN2CCc3cc(-c4c(C)nc(C)c([C@H](OC(C)(C)C)C(=O)O)c4N4CCC(C)(C)CC4)ccc3C2)c(F)c1` [Compound 106, (S)-2-(tert-butoxy)-2-(5-(2-(2,6-difluoro-4-methoxybenzyl)-1,2,3,4-tetrahydroisoquinolin-6-yl)-4-(4,4-dimethylpiperidin-1-yl)-2,6-dimethylpyridin-3-yl)acetic acid]: the EC50 (read-out: Activity) is less than 0.1 µM.
On the same count and under the same terms, the figure for `COc1cc(F)cc(F)c1CN1CCc2cc(-c3c(C)nc(C)c([C@H](OC(C)(C)C)C(=O)O)c3N3CCC(C)(C)CC3)ccc2C1` [Compound 107, (S)-2-(tert-butoxy)-2-(5-(2-(2,4-difluoro-6-methoxybenzyl)-1,2,3,4-tetrahydroisoquinolin-6-yl)-4-(4,4-dimethylpiperidin-1-yl)-2,6-dimethylpyridin-3-yl)acetic acid] is less than 0.1 µM.
The same measure, in the same setting: for `Cc1nc(C)c([C@H](OC(C)(C)C)C(=O)O)c(N2CCC(C)(C)CC2)c1-c1ccc2c(c1)CCN(Cc1ccc(OC(F)(F)F)c(F)c1)C2` [Compound 108, (S)-2-(tert-butoxy)-2-(4-(4,4-dimethylpiperidin-1-yl)-5-(2-(3-fluoro-4-(trifluoromethoxy)benzyl)-1,2,3,4-tetrahydroisoquinolin-6-yl)-2,6-dimethylpyridin-3-yl)acetic acid] the value was less than 0.1 µM; for `COc1cc(C(F)(F)F)ccc1CN1CCc2cc(-c3c(C)nc(C)c([C@H](OC(C)(C)C)C(=O)O)c3N3CCC(C)(C)CC3)ccc2C1` [Compound 109, (S)-2-(tert-butoxy)-2-(4-(4,4-dimethylpiperidin-1-yl)-5-(2-(2-methoxy-4-(trifluoromethyl)benzyl)-1,2,3,4-tetrahydroisoquinolin-6-yl)-2,6-dimethylpyridin-3-yl)acetic acid], less than 0.1 µM.
In the case of `Cc1nc(C)c([C@H](OC(C)(C)C)C(=O)O)c(N2CCC(C)(C)CC2)c1-c1ccc2c(c1)CCN(Cc1cccc(OC(F)(F)F)c1)C2` [Compound 110, (S)-2-(tert-butoxy)-2-(4-(4,4-dimethylpiperidin-1-yl)-2,6-dimethyl-5-(2-(3-(trifluoromethoxy)benzyl)-1,2,3,4-tetrahydroisoquinolin-6-yl)pyridin-3-yl)acetic acid], the EC50 is less than 0.1 µM (read-out: Activity) and 0.008 µM (read-out: EC50 μM).
Consider `Cc1nc(C)c([C@H](OC(C)(C)C)C(=O)O)c(N2CCC(C)(C)CC2)c1-c1ccc2c(c1)CCN(Cc1cc(F)cc(OC(F)(F)F)c1)C2` [Compound 111, (S)-2-(tert-butoxy)-2-(4-(4,4-dimethylpiperidin-1-yl)-5-(2-(3-fluoro-5-(trifluoromethoxy)benzyl)-1,2,3,4-tetrahydroisoquinolin-6-yl)-2,6-dimethylpyridin-3-yl)acetic acid], for which the EC50 (read-out: Activity) is less than 0.1 µM.
With `COc1cc(CN2CCc3cc(-c4c(C)nc(C)c([C@H](OC(C)(C)C)C(=O)O)c4N4CCC(C)(C)CC4)ccc3C2)cc(C(F)(F)F)c1` [Compound 112, (S)-2-(tert-butoxy)-2-(4-(4,4-dimethylpiperidin-1-yl)-5-(2-(3-methoxy-5-(trifluoromethyl)benzyl)-1,2,3,4-tetrahydroisoquinolin-6-yl)-2,6-dimethylpyridin-3-yl)acetic acid], for the setting “read-out: Activity”, the EC50 is less than 0.1 µM.
For `Cc1nc(C)c([C@H](OC(C)(C)C)C(=O)O)c(N2CCC(C)(C)CC2)c1-c1ccc2c(c1)CCN(Cc1cc(Cl)cc(OC(F)(F)F)c1)C2` [Compound 113, (S)-2-(tert-butoxy)-2-(5-(2-(3-chloro-5-(trifluoromethoxy)benzyl)-1,2,3,4-tetrahydroisoquinolin-6-yl)-4-(4,4-dimethylpiperidin-1-yl)-2,6-dimethylpyridin-3-yl)acetic acid], for the setting “read-out: Activity”, the EC50 is less than 0.1 µM.
`Cc1nc(C)c([C@H](OC(C)(C)C)C(=O)O)c(N2CCC(C)(C)CC2)c1-c1ccc2c(c1)CCN(Cc1ccccc1OC(F)F)C2` [Compound 114, (S)-2-(tert-butoxy)-2-(5-(2-(2-(difluoromethoxy)benzyl)-1,2,3,4-tetrahydroisoquinolin-6-yl)-4-(4,4-dimethylpiperidin-1-yl)-2,6-dimethylpyridin-3-yl)acetic acid]: under “read-out: Activity”, the EC50 was less than 0.1 µM.
As to `COc1cccc(F)c1CN1CCc2cc(-c3c(C)nc(C)c([C@H](OC(C)(C)C)C(=O)O)c3N3CCC(C)(C)CC3)ccc2C1` [Compound 115, (S)-2-(tert-butoxy)-2-(4-(4,4-dimethylpiperidin-1-yl)-5-(2-(2-fluoro-6-methoxybenzyl)-1,2,3,4-tetrahydroisoquinolin-6-yl)-2,6-dimethylpyridin-3-yl)acetic acid], the EC50 (read-out: Activity) was less than 0.1 µM.
Turning to `COc1ccc(F)c(CN2CCc3cc(-c4c(C)nc(C)c([C@H](OC(C)(C)C)C(=O)O)c4N4CCC(C)(C)CC4)ccc3C2)c1` [Compound 116, (S)-2-(tert-butoxy)-2-(4-(4,4-dimethylpiperidin-1-yl)-5-(2-(2-fluoro-5-methoxybenzyl)-1,2,3,4-tetrahydroisoquinolin-6-yl)-2,6-dimethylpyridin-3-yl)acetic acid], the EC50 by setting is: (read-out: Activity) less than 0.1 µM; (read-out: EC50 μM) 0.002 µM.
As to `COc1cc(F)ccc1CN1CCc2cc(-c3c(C)nc(C)c([C@H](OC(C)(C)C)C(=O)O)c3N3CCC(C)(C)CC3)ccc2C1` [Compound 117, (S)-2-(tert-butoxy)-2-(4-(4,4-dimethylpiperidin-1-yl)-5-(2-(4-fluoro-2-methoxybenzyl)-1,2,3,4-tetrahydroisoquinolin-6-yl)-2,6-dimethylpyridin-3-yl)acetic acid], the EC50 (read-out: Activity) was less than 0.1 µM.
Still for that read-out and setting: the figure for `Cc1nc(C)c([C@H](OC(C)(C)C)C(=O)O)c(N2CCC(C)(C)CC2)c1-c1ccc2c(c1)CCN(Cc1cccc(OC(F)F)c1)C2` [Compound 118, (S)-2-(tert-butoxy)-2-(5-(2-(3-(difluoromethoxy)benzyl)-1,2,3,4-tetrahydroisoquinolin-6-yl)-4-(4,4-dimethylpiperidin-1-yl)-2,6-dimethylpyridin-3-yl)acetic acid] is less than 0.1 µM; for `COc1ccc(C)cc1CN1CCc2cc(-c3c(C)nc(C)c([C@H](OC(C)(C)C)C(=O)O)c3N3CCC(C)(C)CC3)ccc2C1` [Compound 119, (S)-2-(tert-butoxy)-2-(4-(4,4-dimethylpiperidin-1-yl)-5-(2-(2-methoxy-5-methylbenzyl)-1,2,3,4-tetrahydroisoquinolin-6-yl)-2,6-dimethylpyridin-3-yl)acetic acid] it is less than 0.1 µM.
Consider `Cc1nc(C)c([C@H](OC(C)(C)C)C(=O)O)c(N2CCC(C)(C)CC2)c1-c1ccc2c(c1)CCN(Cc1ccc(F)c(OC(F)(F)F)c1)C2` [Compound 120, (S)-2-(tert-butoxy)-2-(4-(4,4-dimethylpiperidin-1-yl)-5-(2-(4-fluoro-3-(trifluoromethoxy)benzyl)-1,2,3,4-tetrahydroisoquinolin-6-yl)-2,6-dimethylpyridin-3-yl)acetic acid], for which the EC50 (read-out: Activity) was less than 0.1 µM.
For the compound `Cc1nc(C)c([C@H](OC(C)(C)C)C(=O)O)c(N2CCC(C)(C)CC2)c1-c1ccc2c(c1)CCN(Cc1cccc(OC(F)(F)C(F)F)c1)C2` [Compound 121, (S)-2-(tert-butoxy)-2-(4-(4,4-dimethylpiperidin-1-yl)-2,6-dimethyl-5-(2-(3-(1,1,2,2-tetrafluoroethoxy)benzyl)-1,2,3,4-tetrahydroisoquinolin-6-yl)pyridin-3-yl)acetic acid], the EC50 (read-out: Activity) is less than 0.1 µM.
`COc1cc(F)cc(CN2CCc3cc(-c4c(C)nc(C)c([C@H](OC(C)(C)C)C(=O)O)c4N4CCC(C)(C)CC4)ccc3C2)c1` [Compound 122, (S)-2-(tert-butoxy)-2-(4-(4,4-dimethylpiperidin-1-yl)-5-(2-(3-fluoro-5-methoxybenzyl)-1,2,3,4-tetrahydroisoquinolin-6-yl)-2,6-dimethylpyridin-3-yl)acetic acid]: the EC50 (read-out: Activity) is less than 0.1 µM.
Regarding `Cc1nc(C)c([C@H](OC(C)(C)C)C(=O)O)c(N2CCC(C)(C)CC2)c1-c1ccc2c(c1)CCN(Cc1ccccc1OC(F)(F)F)C2` [Compound 123, (S)-2-(tert-butoxy)-2-(4-(4,4-dimethylpiperidin-1-yl)-2,6-dimethyl-5-(2-(2-(trifluoromethoxy)benzyl)-1,2,3,4-tetrahydroisoquinolin-6-yl)pyridin-3-yl)acetic acid], the EC50 was less than 0.1 µM (read-out: Activity) and 0.011 µM (read-out: EC50 μM).
Consider `COc1ccc(F)cc1CN1CCc2cc(-c3c(C)nc(C)c([C@H](OC(C)(C)C)C(=O)O)c3N3CCC(C)(C)CC3)ccc2C1` [Compound 124, (S)-2-(tert-butoxy)-2-(4-(4,4-dimethylpiperidin-1-yl)-5-(2-(5-fluoro-2-methoxybenzyl)-1,2,3,4-tetrahydroisoquinolin-6-yl)-2,6-dimethylpyridin-3-yl)acetic acid], for which, for the setting “read-out: Activity”, the EC50 is less than 0.1 µM.
Same read-out and setting: the figure for `Cc1nc(C)c([C@H](OC(C)(C)C)C(=O)O)c(N2CCC(C)(C)CC2)c1-c1ccc2c(c1)CCN(Cc1ccc(OC(F)(F)C(F)F)cc1)C2` [Compound 125, (S)-2-(tert-butoxy)-2-(4-(4,4-dimethylpiperidin-1-yl)-2,6-dimethyl-5-(2-(4-(1,1,2,2-tetrafluoroethoxy)benzyl)-1,2,3,4-tetrahydroisoquinolin-6-yl)pyridin-3-yl)acetic acid] is less than 0.1 µM.
Take `CCOc1cc(CN2CCc3cc(-c4c(C)nc(C)c([C@H](OC(C)(C)C)C(=O)O)c4N4CCC(C)(C)CC4)ccc3C2)c(F)cc1F` [Compound 126, (S)-2-(tert-butoxy)-2-(4-(4,4-dimethylpiperidin-1-yl)-5-(2-(5-ethoxy-2,4-difluorobenzyl)-1,2,3,4-tetrahydroisoquinolin-6-yl)-2,6-dimethylpyridin-3-yl)acetic acid]: the EC50 (read-out: Activity) is less than 0.1 µM.
As to `Cc1nc(C)c([C@H](OC(C)(C)C)C(=O)O)c(N2CCC(C)(C)CC2)c1-c1ccc2c(c1)CCN(Cc1ccc(Cl)c(Cl)c1)C2` [Compound 127, (S)-2-(tert-butoxy)-2-(5-(2-(3,4-dichlorobenzyl)-1,2,3,4-tetrahydroisoquinolin-6-yl)-4-(4,4-dimethylpiperidin-1-yl)-2,6-dimethylpyridin-3-yl)acetic acid], the EC50 (read-out: Activity) is less than 0.1 µM.
